Where “and” joins values, the source holds several entries; their conditions need not be identical. Equal values may be shown once.
Settings: Liquid, Vibrating tube method

CCCCCC(=O)OCC(COC(=O)CCCCC)(COC(=O)CCCCC)COC(=O)CCCCC [pentaerythritol tetrahexanoate]
Settings | mass density
303.15 K, 32445 kPa | 1007.6 kg/m3
303.15 K, 32464 kPa | 1007.7 kg/m3
303.15 K, 32483 kPa | 1007.6 kg/m3
303.15 K, 32506 kPa | 1007.5 kg/m3
303.15 K, 32525 kPa | 1007.6 kg/m3
303.15 K, 32544 kPa | 1007.5 kg/m3
303.15 K, 32567 kPa | 1007.6 kg/m3
303.15 K, 32586 kPa | 1007.6 kg/m3
303.15 K, 32605 kPa | 1007.7 kg/m3
303.15 K, 32624 kPa | 1007.6 kg/m3
303.15 K, 32647 kPa | 1007.7 kg/m3
303.15 K, 32808 kPa | 1007.7 kg/m3
303.15 K, 32832 kPa | 1007.7 kg/m3
303.15 K, 32851 kPa | 1007.8 kg/m3
303.15 K, 32871 kPa | 1007.7 kg/m3
303.15 K, 32895 kPa | 1007.8 kg/m3
303.15 K, 33911 kPa | 1008.4 kg/m3
303.15 K, 33938 kPa | 1008.4 kg/m3
303.15 K, 33963 kPa | 1008.4 kg/m3
303.15 K, 33989 kPa | 1008.3 kg/m3
303.15 K, 34002 kPa | 1008.3 kg/m3
303.15 K, 34011 kPa | 1008.3 kg/m3
303.15 K, 34016 kPa | 1008.3 kg/m3
303.15 K, 34028 kPa | 1008.4 kg/m3
303.15 K, 34041 kPa | 1008.4 kg/m3
303.15 K, 34057 kPa | 1008.4 kg/m3
303.15 K, 34070 kPa | 1008.3 kg/m3
303.15 K, 34166 kPa | 1008.4 kg/m3
303.15 K, 34178 kPa | 1008.6 kg/m3
303.15 K, 34182 kPa | 1008.4 kg/m3
303.15 K, 34186 kPa | 1008.5 kg/m3
303.15 K, 34190 kPa | 1008.5 kg/m3
303.15 K, 34194 kPa | 1008.5 kg/m3
303.15 K, 34195 kPa | 1008.6 kg/m3
303.15 K, 34196 kPa | 1008.5 kg/m3 and 1008.4 kg/m3
303.15 K, 34197 kPa | 1008.5 kg/m3
303.15 K, 34198 kPa | 1008.4 kg/m3
303.15 K, 34425 kPa | 1008.7 kg/m3
303.15 K, 34426 kPa | 1008.6 kg/m3
303.15 K, 34427 kPa | 1008.6 kg/m3
303.15 K, 34428 kPa | 1008.6 kg/m3
303.15 K, 34430 kPa | 1008.8 kg/m3 and 1008.6 kg/m3
303.15 K, 34431 kPa | 1008.7 kg/m3
303.15 K, 34432 kPa | 1008.8 kg/m3
303.15 K, 34434 kPa | 1008.7 kg/m3 and 1008.6 kg/m3
303.16 K, 193.7 kPa | 988.5 kg/m3 and 988.4 kg/m3
303.16 K, 193.9 kPa | 988.4 kg/m3
303.16 K, 194.1 kPa | 988.5 kg/m3 and 988.4 kg/m3
303.16 K, 194.3 kPa | 988.6 kg/m3 and 988.4 kg/m3
303.16 K, 194.4 kPa | 988.6 kg/m3
303.16 K, 195.5 kPa | 988.4 kg/m3
303.16 K, 195.6 kPa | 988.5 kg/m3
303.16 K, 195.7 kPa | 988.5 kg/m3
303.16 K, 196.9 kPa | 988.5 kg/m3
303.16 K, 197.4 kPa | 988.5 kg/m3 and 988.4 kg/m3
303.16 K, 197.6 kPa | 988.4 kg/m3
303.16 K, 197.7 kPa | 988.5 kg/m3
303.16 K, 198.1 kPa | 988.5 kg/m3
303.16 K, 199.6 kPa | 988.5 kg/m3
303.16 K, 200 kPa | 988.5 kg/m3
303.16 K, 200.2 kPa | 988.6 kg/m3
303.16 K, 200.3 kPa | 988.4 kg/m3
303.16 K, 200.5 kPa | 988.5 kg/m3
303.16 K, 200.7 kPa | 988.4 kg/m3
303.16 K, 201 kPa | 988.5 kg/m3
303.16 K, 201.2 kPa | 988.5 kg/m3
303.16 K, 201.4 kPa | 988.6 kg/m3 and 988.3 kg/m3
303.16 K, 201.6 kPa | 988.4 kg/m3
303.16 K, 201.9 kPa | 988.5 kg/m3
303.16 K, 202.2 kPa | 988.5 kg/m3
303.16 K, 202.8 kPa | 988.5 kg/m3
303.16 K, 202.9 kPa | 988.5 kg/m3
303.16 K, 204.2 kPa | 988.5 kg/m3
303.16 K, 207.1 kPa | 988.5 kg/m3
303.16 K, 207.3 kPa | 988.5 kg/m3
303.16 K, 207.8 kPa | 988.4 kg/m3
303.16 K, 208 kPa | 988.5 kg/m3
303.16 K, 208.2 kPa | 988.5 kg/m3
303.16 K, 209 kPa | 988.5 kg/m3
303.16 K, 209.2 kPa | 988.5 kg/m3
303.16 K, 209.5 kPa | 988.6 kg/m3
303.16 K, 209.7 kPa | 988.4 kg/m3
303.16 K, 211.5 kPa | 988.5 kg/m3
303.16 K, 211.8 kPa | 988.5 kg/m3
303.16 K, 212.7 kPa | 988.4 kg/m3 and 988.5 kg/m3
303.16 K, 212.9 kPa | 988.5 kg/m3
303.16 K, 219.3 kPa | 988.6 kg/m3
303.16 K, 220.1 kPa | 988.5 kg/m3
303.16 K, 220.8 kPa | 988.6 kg/m3
303.16 K, 221.2 kPa | 988.6 kg/m3 and 988.4 kg/m3 and 988.5 kg/m3
303.16 K, 221.4 kPa | 988.6 kg/m3
303.16 K, 221.5 kPa | 988.6 kg/m3
303.16 K, 221.9 kPa | 988.5 kg/m3
303.16 K, 222.2 kPa | 988.6 kg/m3
303.16 K, 222.4 kPa | 988.5 kg/m3
303.16 K, 222.8 kPa | 988.6 kg/m3
303.16 K, 223.1 kPa | 988.5 kg/m3 and 988.4 kg/m3
303.16 K, 223.3 kPa | 988.4 kg/m3
303.16 K, 223.6 kPa | 988.5 kg/m3
303.16 K, 223.8 kPa | 988.6 kg/m3
303.16 K, 224 kPa | 988.4 kg/m3
303.16 K, 224.1 kPa | 988.6 kg/m3
303.16 K, 224.5 kPa | 988.4 kg/m3
303.16 K, 225 kPa | 988.6 kg/m3
303.16 K, 225.2 kPa | 988.4 kg/m3
303.16 K, 225.7 kPa | 988.5 kg/m3
303.16 K, 226 kPa | 988.4 kg/m3
303.16 K, 226.6 kPa | 988.4 kg/m3 and 988.6 kg/m3
303.16 K, 227.1 kPa | 988.5 kg/m3
303.16 K, 227.3 kPa | 988.6 kg/m3 and 988.5 kg/m3
303.16 K, 227.6 kPa | 988.5 kg/m3 and 988.4 kg/m3 and 988.6 kg/m3
303.16 K, 231.4 kPa | 988.4 kg/m3
303.16 K, 232 kPa | 988.5 kg/m3
303.16 K, 232.1 kPa | 988.5 kg/m3
303.16 K, 232.7 kPa | 988.5 kg/m3
303.16 K, 233.9 kPa | 988.5 kg/m3
303.16 K, 234 kPa | 988.5 kg/m3 and 988.6 kg/m3
303.16 K, 234.2 kPa | 988.5 kg/m3
303.16 K, 234.6 kPa | 988.5 kg/m3
303.16 K, 234.9 kPa | 988.5 kg/m3
303.16 K, 235.4 kPa | 988.6 kg/m3
303.16 K, 235.6 kPa | 988.6 kg/m3
303.16 K, 236 kPa | 988.5 kg/m3
303.16 K, 236.1 kPa | 988.6 kg/m3
303.16 K, 236.3 kPa | 988.5 kg/m3 and 988.6 kg/m3
303.16 K, 236.8 kPa | 988.6 kg/m3 and 988.5 kg/m3
303.16 K, 237.2 kPa | 988.5 kg/m3
303.16 K, 237.5 kPa | 988.6 kg/m3
303.16 K, 237.7 kPa | 988.5 kg/m3
303.16 K, 238 kPa | 988.6 kg/m3 and 988.5 kg/m3
303.16 K, 239.3 kPa | 988.5 kg/m3
303.16 K, 239.4 kPa | 988.5 kg/m3
303.16 K, 240 kPa | 988.5 kg/m3 and 988.6 kg/m3
303.16 K, 240.3 kPa | 988.4 kg/m3
303.16 K, 240.5 kPa | 988.5 kg/m3
303.16 K, 240.8 kPa | 988.5 kg/m3
303.16 K, 241.3 kPa | 988.5 kg/m3
303.16 K, 241.5 kPa | 988.5 kg/m3
303.16 K, 241.7 kPa | 988.5 kg/m3
303.16 K, 242.2 kPa | 988.6 kg/m3
303.16 K, 242.6 kPa | 988.5 kg/m3
303.16 K, 242.7 kPa | 988.6 kg/m3
303.16 K, 242.9 kPa | 988.6 kg/m3
303.16 K, 243.3 kPa | 988.4 kg/m3
303.16 K, 243.4 kPa | 988.5 kg/m3

Source: the NIST ThermoML archive (doi:10.1021/je060271a)
